Compound: CC(C)N(CCCNC(=O)Nc1ccc(C(C)(C)C)cc1)C[C@H]1O[C@@H](n2ccc3c(N)ncnc32)[C@H](O)[C@@H]1O + CS(=O)(=O)CCNCc1ccc(-c2ccc3ncnc(Nc4ccc(OCc5cccc(F)c5)c(Cl)c4)c3c2)o1 [Lapatinib] (partner 2 µM)
Assay: relative viability (nuclei count vs DMSO), 5 days (fraction); higher = more cells survive
Details: first compound 0.08 µM
In short: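 Five library-drug doses in √10 steps were combined with a fixed anchor-drug dose, or a single drug was given alone, by pin tool to lung cancer cell lines in 1536-well plates the day after seeding. Nuclei were stained and counted after 5 days. Relative viability is the nuclei count in treated wells over that in vehicle wells, taken as the median of duplicate plates.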

Calu-6 was tested. Which relative viability did it give?
Its relative viability is 1.05.

Which relative viability does the source give for HCC-366 here?
The relative viability was 0.987.

For NCI-H1666, which relative viability is on record?
The relative viability was 0.618.

For NCI-H650, which relative viability is on record?
Its relative viability is 0.921.

Which relative viability does the source give for LK-2 here?
Its relative viability is 0.842.

Which relative viability does the source give for NCI-H2126 here?
The relative viability was 0.721.

With SK-MES-1 as the cell line, how does the relative viability read?
Its relative viability is 0.501.

Which relative viability does the source give for H3255 here?
The relative viability was 0.242.

Which relative viability does the source give for COR-L23 here?
The relative viability was 0.955.

Which relative viability does the source give for COR-L 105 here?
The relative viability was 0.365.

How did the relative viability turn out when IA-LM was run?
Its relative viability is 0.959.

Which relative viability does the source give for LOU-NH91 here?
The relative viability was 0.643.

With NCI-H2170 as the cell line, how does the relative viability read?
The relative viability was 0.248.

Which relative viability does the source give for NCI-H3122 here?
Its relative viability is 1.09.

How did the relative viability turn out when HOP-62 was run?
The relative viability was 1.02.

How did the relative viability turn out when HCC-44 was run?
The relative viability was 1.08.

For A549, which relative viability is on record?
The relative viability was 0.908.

LU99A was tested. Which relative viability did it give?
Its relative viability is 0.923.

With BEN as the cell line, how does the relative viability read?
The relative viability was 0.71.

For HARA, which relative viability is on record?
The relative viability was 0.637.

HCC-78 was tested. Which relative viability did it give?
Its relative viability is 0.693.

Which relative viability does the source give for LCLC-97TM1 here?
The relative viability was 0.906.

NCI-H2023 was tested. Which relative viability did it give?
The relative viability was 0.735.

How did the relative viability turn out when A-427 was run?
Its relative viability is 1.01.

Which relative viability does the source give for NCI-H460 here?
The relative viability was 0.835.

NCI-H838 was tested. Which relative viability did it give?
The relative viability was 0.869.

NCI-H1734 was tested. Which relative viability did it give?
The relative viability was 0.987.

NCI-H596 was tested. Which relative viability did it give?
Its relative viability is 1.17.

NCI-H2405 was tested. Which relative viability did it give?
Its relative viability is 1.14.

Which relative viability does the source give for NCI-H1395 here?
The relative viability was 1.15.

Which relative viability does the source give for 201T here?
The relative viability was 0.99.

Which relative viability does the source give for NCI-H1915 here?
Its relative viability is 1.02.

How did the relative viability turn out when HCC-827 was run?
The relative viability was 0.207.

How did the relative viability turn out when LXF-289 was run?
Its relative viability is 0.867.

Which relative viability does the source give for NCI-H2347 here?
The relative viability was 0.965.

Same assay, conditions: first compound 0.253 µM

Calu-6 was tested. Which relative viability did it give?
The relative viability was 1.09.

Which relative viability does the source give for HCC-366 here?
The relative viability was 1.07.

Which relative viability does the source give for NCI-H1666 here?
Its relative viability is 0.613.

NCI-H650 was tested. Which relative viability did it give?
Its relative viability is 0.889.

With LK-2 as the cell line, how does the relative viability read?
The relative viability was 0.792.

How did the relative viability turn out when NCI-H2126 was run?
Its relative viability is 0.735.

Which relative viability does the source give for SK-MES-1 here?
The relative viability was 0.461.

Which relative viability does the source give for H3255 here?
Its relative viability is 0.255.

For COR-L23, which relative viability is on record?
The relative viability was 0.929.

COR-L 105 was tested. Which relative viability did it give?
The relative viability was 0.317.

IA-LM was tested. Which relative viability did it give?
The relative viability was 0.801.

With LOU-NH91 as the cell line, how does the relative viability read?
Its relative viability is 0.731.

For NCI-H2170, which relative viability is on record?
Its relative viability is 0.26.

NCI-H3122 was tested. Which relative viability did it give?
The relative viability was 0.938.

For HOP-62, which relative viability is on record?
Its relative viability is 0.797.

How did the relative viability turn out when HCC-44 was run?
The relative viability was 1.11.

With A549 as the cell line, how does the relative viability read?
Its relative viability is 1.01.

Which relative viability does the source give for LU99A here?
The relative viability was 0.679.

With BEN as the cell line, how does the relative viability read?
The relative viability was 0.67.

For HARA, which relative viability is on record?
The relative viability was 0.679.

How did the relative viability turn out when HCC-78 was run?
The relative viability was 0.809.

For NCI-H2023, which relative viability is on record?
Its relative viability is 0.425.

How did the relative viability turn out when A-427 was run?
The relative viability was 0.99.

With NCI-H460 as the cell line, how does the relative viability read?
The relative viability was 0.983.

For NCI-H838, which relative viability is on record?
The relative viability was 0.521.

NCI-H1734 was tested. Which relative viability did it give?
Its relative viability is 1.06.

NCI-H596 was tested. Which relative viability did it give?
Its relative viability is 0.946.

For NCI-H1395, which relative viability is on record?
Its relative viability is 1.02.

With 201T as the cell line, how does the relative viability read?
The relative viability was 1.07.

Which relative viability does the source give for NCI-H1915 here?
The relative viability was 0.981.

With HCC-827 as the cell line, how does the relative viability read?
The relative viability was 0.217.

LXF-289 was tested. Which relative viability did it give?
Its relative viability is 0.956.

How did the relative viability turn out when NCI-H2347 was run?
The relative viability was 0.999.

Same assay, conditions: first compound 0.8 µM

Which relative viability does the source give for Calu-6 here?
Its relative viability is 1.09.

Which relative viability does the source give for HCC-366 here?
Its relative viability is 1.02.

With NCI-H1666 as the cell line, how does the relative viability read?
Its relative viability is 0.427.

For NCI-H650, which relative viability is on record?
The relative viability was 0.775.

LK-2 was tested. Which relative viability did it give?
The relative viability was 0.985.

For NCI-H2126, which relative viability is on record?
Its relative viability is 0.681.

How did the relative viability turn out when SK-MES-1 was run?
The relative viability was 0.455.

With H3255 as the cell line, how does the relative viability read?
The relative viability was 0.231.

Which relative viability does the source give for COR-L23 here?
The relative viability was 0.888.

How did the relative viability turn out when COR-L 105 was run?
Its relative viability is 0.417.

For IA-LM, which relative viability is on record?
The relative viability was 0.733.

For NCI-H2170, which relative viability is on record?
The relative viability was 0.256.

With NCI-H3122 as the cell line, how does the relative viability read?
Its relative viability is 1.02.

How did the relative viability turn out when HOP-62 was run?
Its relative viability is 0.858.

Which relative viability does the source give for HCC-44 here?
Its relative viability is 0.857.

Which relative viability does the source give for A549 here?
The relative viability was 1.29.

LU99A was tested. Which relative viability did it give?
Its relative viability is 1.16.

Which relative viability does the source give for BEN here?
The relative viability was 0.71.

How did the relative viability turn out when HARA was run?
Its relative viability is 0.429.

Which relative viability does the source give for HCC-78 here?
Its relative viability is 0.786.

With LCLC-97TM1 as the cell line, how does the relative viability read?
The relative viability was 1.41.

How did the relative viability turn out when NCI-H2023 was run?
The relative viability was 0.752.

A-427 was tested. Which relative viability did it give?
The relative viability was 1.05.

NCI-H460 was tested. Which relative viability did it give?
The relative viability was 0.829.

NCI-H838 was tested. Which relative viability did it give?
The relative viability was 0.953.

How did the relative viability turn out when NCI-H1734 was run?
The relative viability was 0.976.

With NCI-H596 as the cell line, how does the relative viability read?
The relative viability was 0.971.

With NCI-H2405 as the cell line, how does the relative viability read?
Its relative viability is 0.811.

201T was tested. Which relative viability did it give?
The relative viability was 0.863.

How did the relative viability turn out when NCI-H1915 was run?
Its relative viability is 0.783.

For LXF-289, which relative viability is on record?
Its relative viability is 0.863.

For NCI-H2347, which relative viability is on record?
The relative viability was 0.654.

Same assay, conditions: first compound 2.53 µM

Calu-6 was tested. Which relative viability did it give?
Its relative viability is 1.12.

For HCC-366, which relative viability is on record?
Its relative viability is 0.981.

With NCI-H1666 as the cell line, how does the relative viability read?
The relative viability was 0.568.

With NCI-H650 as the cell line, how does the relative viability read?
Its relative viability is 0.791.

LK-2 was tested. Which relative viability did it give?
The relative viability was 0.867.

How did the relative viability turn out when NCI-H2126 was run?
The relative viability was 0.718.

With SK-MES-1 as the cell line, how does the relative viability read?
The relative viability was 0.491.

For H3255, which relative viability is on record?
Its relative viability is 0.253.

For COR-L23, which relative viability is on record?
The relative viability was 1.01.

With COR-L 105 as the cell line, how does the relative viability read?
The relative viability was 0.403.

Which relative viability does the source give for IA-LM here?
Its relative viability is 0.734.

For LOU-NH91, which relative viability is on record?
Its relative viability is 0.83.

NCI-H2170 was tested. Which relative viability did it give?
The relative viability was 0.262.

How did the relative viability turn out when NCI-H3122 was run?
The relative viability was 1.02.

Which relative viability does the source give for HOP-62 here?
Its relative viability is 0.958.

For HCC-44, which relative viability is on record?
Its relative viability is 1.05.

How did the relative viability turn out when A549 was run?
Its relative viability is 0.93.

How did the relative viability turn out when LU99A was run?
The relative viability was 1.16.

Which relative viability does the source give for BEN here?
Its relative viability is 0.628.

HARA was tested. Which relative viability did it give?
The relative viability was 0.498.

With HCC-78 as the cell line, how does the relative viability read?
Its relative viability is 0.431.

With LCLC-97TM1 as the cell line, how does the relative viability read?
Its relative viability is 0.517.

Which relative viability does the source give for NCI-H2023 here?
Its relative viability is 0.787.

With A-427 as the cell line, how does the relative viability read?
Its relative viability is 1.04.

How did the relative viability turn out when NCI-H460 was run?
The relative viability was 0.971.

With NCI-H838 as the cell line, how does the relative viability read?
The relative viability was 0.938.

How did the relative viability turn out when NCI-H1734 was run?
Its relative viability is 1.13.

How did the relative viability turn out when NCI-H596 was run?
Its relative viability is 1.08.

Which relative viability does the source give for NCI-H2405 here?
The relative viability was 1.13.

How did the relative viability turn out when NCI-H1395 was run?
The relative viability was 0.94.

With 201T as the cell line, how does the relative viability read?
Its relative viability is 1.02.

NCI-H1915 was tested. Which relative viability did it give?
Its relative viability is 0.925.

How did the relative viability turn out when HCC-827 was run?
Its relative viability is 0.174.

With LXF-289 as the cell line, how does the relative viability read?
Its relative viability is 0.943.

For NCI-H2347, which relative viability is on record?
The relative viability was 0.968.

Same assay, conditions: first compound 8 µM

Which relative viability does the source give for Calu-6 here?
The relative viability was 1.09.

With HCC-366 as the cell line, how does the relative viability read?
Its relative viability is 0.976.

For NCI-H1666, which relative viability is on record?
The relative viability was 0.486.

With NCI-H650 as the cell line, how does the relative viability read?
Its relative viability is 0.871.

How did the relative viability turn out when LK-2 was run?
The relative viability was 0.82.

With NCI-H2126 as the cell line, how does the relative viability read?
The relative viability was 0.742.

With SK-MES-1 as the cell line, how does the relative viability read?
Its relative viability is 0.414.

Which relative viability does the source give for H3255 here?
Its relative viability is 0.216.

COR-L23 was tested. Which relative viability did it give?
The relative viability was 1.04.

COR-L 105 was tested. Which relative viability did it give?
The relative viability was 0.355.

Which relative viability does the source give for IA-LM here?
The relative viability was 0.681.

How did the relative viability turn out when LOU-NH91 was run?
The relative viability was 0.773.

How did the relative viability turn out when NCI-H2170 was run?
The relative viability was 0.266.

How did the relative viability turn out when NCI-H3122 was run?
Its relative viability is 1.03.

Which relative viability does the source give for HOP-62 here?
The relative viability was 0.764.

How did the relative viability turn out when HCC-44 was run?
Its relative viability is 0.959.

For A549, which relative viability is on record?
The relative viability was 1.01.

LU99A was tested. Which relative viability did it give?
The relative viability was 1.04.

For BEN, which relative viability is on record?
Its relative viability is 0.625.

For HARA, which relative viability is on record?
Its relative viability is 0.568.

From the supplement of paper PMC10307832
